Measured values as given in US20020137929A1, “1 - (3-heterocyclylphenyl) isothiourea, -isourea, -guanidine and -amidine herbicidal agents” (Intellectual Property Department, BASF Aktiengesellschaft, priority 1998, published 2002).

Key:
[1] = test system: SAGPY (Arrowhead (Pygmaea)); experiment: Preemergence weed control under flooded paddy conditions; assay type: in vivo, Sagittaria pygmaea; details: rated 3-4 weeks after treatment
Procedure, shortened: (§1)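 Ratings on a 0-9 visual scale cover stand, vigor, malformation, size, chlorosis and overall appearance relative to a control, taken three to four weeks post-treatment. Application was into flood water over freshly sown silt loam at roughly 0.0313 to 0.500 kg/ha.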

[2] = test system: SAGPY (Arrowhead (Pygmaea)); experiment: Postemergence weed control under flooded paddy conditions; assay type: in vivo, Sagittaria pygmaea; details: postemergence weeds, rated 3 to 4 weeks after treatment
Procedure, shortened: (§2)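 Herbicidal effect is judged by eye on a 0–9 scale versus control, 3–4 weeks after dosing. Dosing is into flood water kept 1.5–3 cm over the soil, at about 0.0313–0.500 kg/ha in aqueous/acetone 50/50 v/v, on 3–5 cm weeds and 1.5–2.5-leaf rice seedlings.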

CYPSE (Flatsedge) = experiment: Preemergence weed control under flooded paddy conditions; assay type: in vivo, Cyperus serotinus; details: rated 3-4 weeks after treatment
Procedure, shortened: as §1

[3] = test system: ECHORC (Watergrass (Calif.)); experiment: Postemergence weed control under flooded paddy conditions; assay type: in vivo, Echinochloa oryzoides; details: postemergence weeds, rated 3 to 4 weeks after treatment
Procedure, shortened: as §2

MOOVA (Monochoria) = experiment: Preemergence weed control under flooded paddy conditions; assay type: in vivo, Monochoria vaginalis; details: rated 3-4 weeks after treatment
Procedure, shortened: as §1

ORYSAT (Rice, Tebonnet) = experiment: Preemergence herbicidal evaluation; assay type: in vivo, Oryza sativa, (L.) Tebonnet; details: rated 4-5 weeks after treatment
Procedure, shortened: (§3)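 Herbicidal effect scored visually, 0-9, at 4 to 5 weeks against a control; compound applied preemergence by aqueous acetone spray to seeded soil at about 0.0156 to 0.500 kg/ha.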

[4] = test system: GLXMAW (Soybean, Williams); experiment: Postemergence herbicidal evaluation; assay type: in vivo, Glycine max, (L.) Merr. cv Williams; details: postemergence
Procedure, shortened: (§4)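 First, seedlings were raised for around two weeks. Next, test material in 50/50 acetone/water containing 0.5% TWEEN 20 was sprayed through a nozzle at 40 psi, equivalent to about 0.0156–0.500 kg/ha. Finally, after 4–5 weeks in the greenhouse, plants were rated 0–9.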

CASOB (Sicklepod) = experiment: Postemergence herbicidal evaluation; assay type: in vivo, Cassia obtusifolia; details: postemergence
Procedure, shortened: as §4

GALAP (Galium) [5] = experiment: Postemergence herbicidal evaluation; assay type: in vivo, Galium aparine; details: postemergence
Procedure, shortened: as §4

SETVI (Foxtail, Green) = experiment: Preemergence herbicidal evaluation; assay type: in vivo, Setaria viridis; details: rated 4-5 weeks after treatment
Procedure, shortened: as §3

GALAP (Galium) [6] = experiment: Preemergence herbicidal evaluation; assay type: in vivo, Galium aparine; details: rated 4-5 weeks after treatment
Procedure, shortened: as §3

AMBEL (Ragweed, Common) = experiment: Postemergence herbicidal evaluation; assay type: in vivo, Ambrosia artemisifolia; details: postemergence
Procedure, shortened: as §4

[7] = test system: TRZAWR (Wheat, Winter, cv Riband); experiment: Postemergence herbicidal evaluation; assay type: in vivo, Triticum aestivum; details: postemergence
Procedure, shortened: as §4

[8] = test system: ECHORC (Watergrass (Calif.)); experiment: Preemergence weed control under flooded paddy conditions; assay type: in vivo, Echinochloa oryzoides; details: rated 3-4 weeks after treatment
Procedure, shortened: as §1

C#CCOC(=O)CC1SC(=Nc2cc(-n3c(=O)cc(C(F)(F)F)n(C)c3=O)c(F)cc2Cl)N(CC=C)C1=O (stereo not drawn) [Compound 67, 2-Propynyl 3-allyl-2-{{2-chloro-5-[3,6-dihydro-3-methyl-2,6-dioxo-4-(trifluoromethyl)-1(2H)-pyrimidinyl]-4-fluorophenyl}imino}-4-oxo-5-thiazolidineacetate]
SAGPY herbicidal effect rating ([1]; 0.0313 kg/ha): 0.0
SAGPY herbicidal effect rating ([1]; 0.0625 kg/ha): 4.0
SAGPY herbicidal effect rating ([1]; 0.1250 kg/ha): 4.0
SAGPY herbicidal effect rating ([1]; 0.2500 kg/ha): 6.0
Herbicidal rating SAGPY ([2]; Rate 0.0313 kg/ha): 0.0
Herbicidal rating SAGPY ([2]; Rate 0.0625 kg/ha): 4.0
Herbicidal rating SAGPY ([2]; Rate 0.1250 kg/ha): 4.0
Herbicidal rating SAGPY ([2]; Rate 0.2500 kg/ha): 6.0
CYPSE herbicidal effect rating (CYPSE (Flatsedge); 0.0313 kg/ha): 0.0
CYPSE herbicidal effect rating (CYPSE (Flatsedge); 0.0625 kg/ha): 3.0
CYPSE herbicidal effect rating (CYPSE (Flatsedge); 0.1250 kg/ha): 3.0
CYPSE herbicidal effect rating (CYPSE (Flatsedge); 0.2500 kg/ha): 3.0
Herbicidal rating ECHORC ([3]; Rate 0.0313 kg/ha): 0.0
Herbicidal rating ECHORC ([3]; Rate 0.0625 kg/ha): 4.0
Herbicidal rating ECHORC ([3]; Rate 0.1250 kg/ha): 5.0
Herbicidal rating ECHORC ([3]; Rate 0.2500 kg/ha): 5.0
MOOVA herbicidal effect rating (MOOVA (Monochoria); 0.0313 kg/ha): 9.0
MOOVA herbicidal effect rating (MOOVA (Monochoria); 0.0625 kg/ha): 9.0
MOOVA herbicidal effect rating (MOOVA (Monochoria); 0.1250 kg/ha): 9.0
MOOVA herbicidal effect rating (MOOVA (Monochoria); 0.2500 kg/ha): 9.0
Preemergence herbicidal rating ORYSAT (ORYSAT (Rice, Tebonnet); rate 0.0156 kg/ha): 0.0
Preemergence herbicidal rating ORYSAT (ORYSAT (Rice, Tebonnet); rate 0.0313 kg/ha): 0.0
Preemergence herbicidal rating ORYSAT (ORYSAT (Rice, Tebonnet); rate 0.0625 kg/ha): 0.0
Preemergence herbicidal rating ORYSAT (ORYSAT (Rice, Tebonnet); rate 0.1250 kg/ha): 1.0
Preemergence herbicidal rating ORYSAT (ORYSAT (Rice, Tebonnet); rate 0.2500 kg/ha): 1.0
GLXMAW herbicidal rating ([4]; rate 0.0158 kg/ha): 8.5
GLXMAW herbicidal rating ([4]; rate 0.0315 kg/ha): 7.5
GLXMAW herbicidal rating ([4]; rate 0.0630 kg/ha): 7.5
CASOB herbicidal rating (CASOB (Sicklepod); rate 0.0158 kg/ha): 0.0
CASOB herbicidal rating (CASOB (Sicklepod); rate 0.0315 kg/ha): 2.0
CASOB herbicidal rating (CASOB (Sicklepod); rate 0.0630 kg/ha): 3.0
GALAP herbicidal rating (GALAP (Galium) [5]; rate 0.0158 kg/ha): 2.9
GALAP herbicidal rating (GALAP (Galium) [5]; rate 0.0315 kg/ha): 6.0
GALAP herbicidal rating (GALAP (Galium) [5]; rate 0.0630 kg/ha): 5.0
Preemergence herbicidal rating SETVI (SETVI (Foxtail, Green); rate 0.0156 kg/ha): 0.0
Preemergence herbicidal rating SETVI (SETVI (Foxtail, Green); rate 0.0313 kg/ha): 0.0
Preemergence herbicidal rating SETVI (SETVI (Foxtail, Green); rate 0.0625 kg/ha): 0.0
Preemergence herbicidal rating SETVI (SETVI (Foxtail, Green); rate 0.1250 kg/ha): 6.0
Preemergence herbicidal rating SETVI (SETVI (Foxtail, Green); rate 0.2500 kg/ha): 7.0
Preemergence herbicidal rating GALAP (GALAP (Galium) [6]; rate 0.0156 kg/ha): 0.0
Preemergence herbicidal rating GALAP (GALAP (Galium) [6]; rate 0.0313 kg/ha): 0.0
Preemergence herbicidal rating GALAP (GALAP (Galium) [6]; rate 0.0625 kg/ha): 0.0
Preemergence herbicidal rating GALAP (GALAP (Galium) [6]; rate 0.1250 kg/ha): 1.0
Preemergence herbicidal rating GALAP (GALAP (Galium) [6]; rate 0.2500 kg/ha): 0.0
AMBEL herbicidal rating (AMBEL (Ragweed, Common); rate 0.0158 kg/ha): 6.0
AMBEL herbicidal rating (AMBEL (Ragweed, Common); rate 0.0315 kg/ha): 7.0
AMBEL herbicidal rating (AMBEL (Ragweed, Common); rate 0.0630 kg/ha): 7.0
TRZAWR herbicidal rating ([7]; rate 0.0158 kg/ha): 5.0
TRZAWR herbicidal rating ([7]; rate 0.0315 kg/ha): 6.0
TRZAWR herbicidal rating ([7]; rate 0.0630 kg/ha): 6.5
ECHORC herbicidal effect rating ([8]; 0.0313 kg/ha): 0.0
ECHORC herbicidal effect rating ([8]; 0.0625 kg/ha): 4.0
ECHORC herbicidal effect rating ([8]; 0.1250 kg/ha): 5.0
ECHORC herbicidal effect rating ([8]; 0.2500 kg/ha): 5.0

CCOC(=O)CN1C(=O)C(CC(=O)Nc2ccccc2)SC1=Nc1cc(-n2c(=O)cc(C(F)(F)F)n(C)c2=O)c(F)cc1Cl (stereo not drawn) [Compound 68, Ethyl 2-{{2-chloro-5-[3,6-dihydro-3-methyl-2,6-dioxo-4-(trifluoromethyl)-1(2H)-pyrimidinyl]-4-fluorophenyl}imino}-4-oxo-5-[(phenylcarbamoyl)-methyl]-3-thiazolidineacetate]
SAGPY herbicidal effect rating ([1]; 0.0313 kg/ha): 0.0
SAGPY herbicidal effect rating ([1]; 0.0625 kg/ha): 0.0
SAGPY herbicidal effect rating ([1]; 0.1250 kg/ha): 0.0
SAGPY herbicidal effect rating ([1]; 0.2500 kg/ha): 3.0
Herbicidal rating SAGPY ([2]; Rate 0.0313 kg/ha): 0.0
Herbicidal rating SAGPY ([2]; Rate 0.0625 kg/ha): 0.0
Herbicidal rating SAGPY ([2]; Rate 0.1250 kg/ha): 0.0
Herbicidal rating SAGPY ([2]; Rate 0.2500 kg/ha): 3.0
CYPSE herbicidal effect rating (CYPSE (Flatsedge); 0.0313 kg/ha): 0.0
CYPSE herbicidal effect rating (CYPSE (Flatsedge); 0.0625 kg/ha): 0.0
CYPSE herbicidal effect rating (CYPSE (Flatsedge); 0.1250 kg/ha): 0.0
CYPSE herbicidal effect rating (CYPSE (Flatsedge); 0.2500 kg/ha): 0.0
Herbicidal rating ECHORC ([3]; Rate 0.0313 kg/ha): 0.0
Herbicidal rating ECHORC ([3]; Rate 0.0625 kg/ha): 5.0
Herbicidal rating ECHORC ([3]; Rate 0.1250 kg/ha): 7.0
Herbicidal rating ECHORC ([3]; Rate 0.2500 kg/ha): 7.0
MOOVA herbicidal effect rating (MOOVA (Monochoria); 0.0313 kg/ha): 3.0
MOOVA herbicidal effect rating (MOOVA (Monochoria); 0.0625 kg/ha): 9.0
MOOVA herbicidal effect rating (MOOVA (Monochoria); 0.1250 kg/ha): 9.0
MOOVA herbicidal effect rating (MOOVA (Monochoria); 0.2500 kg/ha): 9.0
Preemergence herbicidal rating ORYSAT (ORYSAT (Rice, Tebonnet); rate 0.0156 kg/ha): 0.0
Preemergence herbicidal rating ORYSAT (ORYSAT (Rice, Tebonnet); rate 0.0313 kg/ha): 0.0
Preemergence herbicidal rating ORYSAT (ORYSAT (Rice, Tebonnet); rate 0.0625 kg/ha): 0.0
Preemergence herbicidal rating ORYSAT (ORYSAT (Rice, Tebonnet); rate 0.1250 kg/ha): 0.0
Preemergence herbicidal rating ORYSAT (ORYSAT (Rice, Tebonnet); rate 0.2500 kg/ha): 1.0
GLXMAW herbicidal rating ([4]; rate 0.0158 kg/ha): 6.0
GLXMAW herbicidal rating ([4]; rate 0.0315 kg/ha): 5.5
GLXMAW herbicidal rating ([4]; rate 0.0630 kg/ha): 7.0
CASOB herbicidal rating (CASOB (Sicklepod); rate 0.0158 kg/ha): 1.0
CASOB herbicidal rating (CASOB (Sicklepod); rate 0.0315 kg/ha): 4.0
CASOB herbicidal rating (CASOB (Sicklepod); rate 0.0630 kg/ha): 7.0
GALAP herbicidal rating (GALAP (Galium) [5]; rate 0.0158 kg/ha): 2.0
GALAP herbicidal rating (GALAP (Galium) [5]; rate 0.0315 kg/ha): 3.0
GALAP herbicidal rating (GALAP (Galium) [5]; rate 0.0630 kg/ha): 4.0
Preemergence herbicidal rating SETVI (SETVI (Foxtail, Green); rate 0.0156 kg/ha): 0.0
Preemergence herbicidal rating SETVI (SETVI (Foxtail, Green); rate 0.0313 kg/ha): 0.0
Preemergence herbicidal rating SETVI (SETVI (Foxtail, Green); rate 0.0625 kg/ha): 0.0
Preemergence herbicidal rating SETVI (SETVI (Foxtail, Green); rate 0.1250 kg/ha): 0.0
Preemergence herbicidal rating SETVI (SETVI (Foxtail, Green); rate 0.2500 kg/ha): 2.0
Preemergence herbicidal rating GALAP (GALAP (Galium) [6]; rate 0.0156 kg/ha): 0.0
Preemergence herbicidal rating GALAP (GALAP (Galium) [6]; rate 0.0313 kg/ha): 0.0
Preemergence herbicidal rating GALAP (GALAP (Galium) [6]; rate 0.0625 kg/ha): 0.0
Preemergence herbicidal rating GALAP (GALAP (Galium) [6]; rate 0.1250 kg/ha): 0.0
Preemergence herbicidal rating GALAP (GALAP (Galium) [6]; rate 0.2500 kg/ha): 0.0
AMBEL herbicidal rating (AMBEL (Ragweed, Common); rate 0.0158 kg/ha): 9.0
AMBEL herbicidal rating (AMBEL (Ragweed, Common); rate 0.0315 kg/ha): 9.0
AMBEL herbicidal rating (AMBEL (Ragweed, Common); rate 0.0630 kg/ha): 9.0
TRZAWR herbicidal rating ([7]; rate 0.0158 kg/ha): 3.0
TRZAWR herbicidal rating ([7]; rate 0.0315 kg/ha): 3.5
TRZAWR herbicidal rating ([7]; rate 0.0630 kg/ha): 4.0
ECHORC herbicidal effect rating ([8]; 0.0313 kg/ha): 0.0
ECHORC herbicidal effect rating ([8]; 0.0625 kg/ha): 5.0
ECHORC herbicidal effect rating ([8]; 0.1250 kg/ha): 7.0
ECHORC herbicidal effect rating ([8]; 0.2500 kg/ha): 7.0
